The source of these data is article PMC3293629 (Nature Communications, 2012).

For assay [1], the system named is Flu1-specific clone HA1.7. As to the kind of experiment: IFN-γ ELISpot, other Flu1-specific clones. It is filed as cell-based, human. Conditions: Fig. 1c, peptide titration, compared with Flu1.
The test system of assay [2] is CD4^+ T cells binding the HLA-DR1/HA305−320 tetramer. In kind it is cell-based, human.
The test system of assay [3] is TRB clonotypes of tetramer-sorted CD4^+ T cells. In kind it is cell-based, human.
The test system of assay [4] is HA1.7, F11 and HA-C6 TCRs. The experiment in a line: SPR equilibrium binding of HA1.7, F11 and HA-C6 TCRs, combined. Details: species or system human. Conditions: Arg at P10 or P11.
Assay [5] concerns CD4^+ HLA-DR1/HA305−320 tetramer-positive cells. In kind it is cell-based, human.

Where two headings read alike, the source gives them in different places.

In the case of PKYVKQNTLKLAR [Flu3], the “responsiveness to altered peptides, other clones (in words)” value in assay [1] is given as “striking increase in responsiveness”. The “tetramer-positive expansion, % of CD3^+ T cells” value in assay [2] (short-term T-cell line primed with peptide, HLA-DR1/HA305−320 tetramer) is 28.7 % of CD3^+ T cells. Moreover, the Freq. of clonotype in assay [3] (TRBV 5–6, CDR3 […], TRBJ 1–2) was determined as 69.70%; in assay [3] (TRBV 12–3/4, CDR3 […], TRBJ 1–5), 30.30%. Further, the “clonotypic composition, repeat experiment versus first (in words)” value in assay [3] (same donor, Chi square 0.72, P=0.70, data not shown) was “no significant difference”. Also, the “increase in TCR binding affinity” value in assay [4] was greater than 2 fold.

“PKYVKQNTLKLAT [Flu1, reference compound]”: in assay [5], the “number of expanded CD4^+ HLA-DR1/HA305−320 tetramer-positive cells” value is recorded as ≥ 5×10^4 cells. Moreover, in assay [2], the “tetramer-positive expansion, % of CD3^+ T cells” value is recorded as 19.4 % of CD3^+ T cells. Besides, the “clonotypic composition, repeat experiment versus first (in words)” value in assay [3] was “no significant difference”.
